Laboratory results taken from US10906909B2, “Treatment of cognitive and mood symptoms in neurodegenerative and neuropsychiatric disorders with ALPHA5-containing GABAA receptor agonists” (UWM Research Foundation, Inc., priority 2016, dated 2021).
“Also recorded” adds a separate entry of the source.

Experiments:
[1] = system: mice subjected to chronic restraint stress (CRS); experiment: Y-maze alternation task, chronic restraint stress (CRS) mice; format: in vivo, mouse; details: for effect on CRS-induced working memory deficit (percent alternation rate, Y-maze): 10 mg/kg i.p. 30 min before testing; for Alternation rate (%): Dose 10 mg/kg
Experimental: C57/B16 mice, males and females were ordered from Jackson Laboratories at 8 weeks old and were kept in normal housing conditions (12 h light ON cycle starting at 7 am/water and food ad libitum) for one week. During this week, animals were single housed and handled to reduce the anxiety-like response toward the experimenter. To induce a working memory deficit, mice were subjected to a chronic restraint stress protocol (CRS). They were placed in a 50 ml Falcon® tube, twice a day, for 1 hour during their diurnal cycle. The time of occurrence of the stress was randomized every day to avoid predictability. CRS was not applied on testing days. Y-maze test occurred 15 hours minimum after the last stressor.
Mice were first habituated to the Y-maze apparatus and distal cues during 2 consecutive days over a 10 min free exploration session (one session per day). The next day, animals performed a training session consisting in seven successive trials separated by a 30 s inter-trial interval (ITI); during this training session, mice were familiarized with the experimental procedure (opening and closing of the doors and confinement into the goal arms). For each trial, mice remained in the start-box for a 30 s ITI. Then, the door was opened and the mouse was allowed to enter freely one of the two goal arms; the chosen arm was closed and the choice was recorded. After a 30 s confinement period into the chosen arm, the mouse was removed and brought back to the start-box for a second trial identical to the first one and this procedure was repeated over the series of trials.
The same general procedure used in the training session was implemented 24 h later, except that the ITI was lengthened to 90 s. For this experiment, animals were acutely injected i.p. with vehicle or αPAM, 30 minutes before the beginning of the test. To dissociate memory deficits from an eventual progressive loss of motivation to alternate over the series, an 8th trial was added to the series which was separated from the 7th trial by a shorter ITI (5 s). All animals failing to alternate at the 8th trial were excluded. The mean alternation rate was calculated and was expressed in percentage (number of alternation done by the animal/total number of alternation possible×100)±SEM. The percentage of alternation during the entire task is considered as an index of working memory performance (50% of being a random alternation rate). Factorial ANOVA was applied to the data to reveal differences between groups. If the ANOVA was significant for group effect (p<0.05), Scheffe post-hoc analysis were conducted to identify which groups are different from each other.
(§1) All drugs were diluted in a vehicle solution containing 85% H2O, 14% propylene glycol (Sigma Aldrich) and 1% Tween 80 (Sigma Aldrich). Working solutions were prepared at a concentration of 10 mg/mL and administered i.p. adjusted to the body weight of each animal. Doses used were either 1, 5, 10 or 20 mg/kg. For all Y maze experiments, animals were acutely injected i.p. with vehicle or αPAM, 30 minutes before the beginning of the test.

[2] = system: Female Swiss Webster mice; experiment: Rotarod sensorimotor / locomotor coordination; format: in vivo, mouse; details: 40 mg/kg oral gavage; 15 rpm, 3 min; 10, 30, 60 min after dosing
Experimental: Female Swiss Webster mice (10 weeks of age) from Charles River Laboratory, WIL, MA were used for the experiments. The animals were housed under specific pathogen-free conditions, under standard conditions of humidity, temperature and a controlled 12 h light and dark cycle and had free access to food and water. The sensorimotor rotarod test was carried out 10, 30 and 60 minutes after the injection. Mice were tested on a rotarod at 15 rpm for maximum 3 min and the time of fall was recorded. Falling before the 3 minutes period of testing assesses of locomotor coordination impairment induced by the compound.
Mice (N=10/group) received a single administration via oral gavage of test compound (40 mg/kg), diazepam (5 mg/kg), or vehicle (2% polyethylene glycol, 2.5% hydroxypropylmethyl cellulose solution).

[3] = Human liver microsome stability assay; format: in vitro ADME; details: 10 μM compound; for half-life at 10 μM: human, liver microsomes, read-out: Half-life (min) (HumanLM)
Experimental: (§2) Human and mouse liver microsomes were obtained fom BD Gentest.
(§3) Each evaluation included six independent assays carried out three at a time, on two different days
(§4) 2. For a total volume of Microsomal Assay Mixture (MAM) 390 μL, sufficient for seven time points, combine the following
(§5) 3. Sonicate MAM for 5 min and meanwhile thaw microsomes (20 mg/mL) (BD Gentest, Cat #452156) on ice.
(§6) 4. Aliquot 100 μL of ice cold ISTD into 7 separate 1.5 mL conical vials and label them the time points for 0, 10, 20, 40, 60, 90, and 120 min.
(§7) 5. Arrange the timer. Microsomes (Final concentration of 0.5 mg/mL) should be added to all time points except the zero time point.
(§8) 6. Add 50 μL of the MAM solution to the conical vial labelled as zero time point. Place the remaining MAM solution in the incubator (37° C.) for 5 min and initiate the reaction with addition of microsomes (8.8 μL) and record the time.
(§9) 7. At the end of each time interval remove 50 μL and add 100 μL to ISTD in conical vial, sonicate for 10 sec and spin down at 10,000 rpm for 5 minutes.
(§10) 8. Take 100 μL of supernatant and transfer to Spin-X HPLC filter tubes (Corning Incorporated, Cat #8169) and centrifuge at 13,000 rpm for 5 minutes and take 5 μL from this solution and dilute in 495 μL of LCMS grade methanol (Fischer scientific, CAS #67-56-1) in an 2 mL glass auto sampler vial (Microsolv, Cat #95025-WCV) 9. The samples are analyzed by LCMS-8040. (Shimadzu)
(§11) Calculation: From the peak area, calculate the following
(§12) The compounds are tested for the metabolic stability in the Human and Mouse Liver microsomes at 10 μM concentration.

[4] = Mouse liver microsome stability assay; format: in vitro ADME; details: 10 μM compound; for half-life at 10 μM: mouse, liver microsomes, read-out: Half-life (min) (MouseLM)
Experimental: as §2, §3, §4, §5, §6, §7, §8, §9, §10, §11, §12

[5] = Pharmacokinetics in mice (plasma, liver, brain); details: i.p. dosing at 3 mg/kg
[6] = system: HEK293; experiment: Cytotoxicity assay (CellTiter-Glo), HEK293; format: cell-based, human; details: 48 hours incubation
Experimental: (§13) Human liver hepatocellular carcinoma (HEPG2) and human embryonic kidney 293 (HEK293) cell lines were purchased (ATCC) and cultured in 75 cm2 flasks (CellStar). Cells were grown in DMEM/High Glucose (Hyclone, #SH3024301) media to which non-essential amino acids (Hyclone, #SH30238.01), 10 mM HEPES (Hyclone, #SH302237.01), 5×106 units of penicillin and streptomycin (Hyclone, #SV30010), and 10% of heat inactivated fetal bovine serum (Gibco, #10082147) were added. Cells were harvested using 0.05% Trypsin (Hyclone, #SH3023601), washed with PBS, and dispensed into sterile white, optical bottom 384-well plates (NUNC, #142762). After three hours, small molecule solutions were transferred with a Tecan Freedom EVO liquid handling system equipped with a 100 nL pin tool (V&P Scientific). The controls (E)-10-(bromotriphenylphosphoranyl)decyl 4-(4-(tert-butyl)phenyl)-4-oxobut-2-enoate (400 μM in DMSO, positive control) and DMSO (negative control). The cells were incubated for 48 hours followed by the addition of CellTiter-Glo™, a luminescence-based cell viability assay (Promega, Madison, Wis.). All luminescence readings were performed on a Tecan Infinite M1000 plate reader. The assay was carried out in quadruplet with three independent runs. The data was normalized to the controls and analyzed by nonlinear regression (GraphPad Prism).

[7] = system: HEPG2; experiment: Cytotoxicity assay (CellTiter-Glo), HEPG2; format: cell-based, human; details: 48 hours incubation
Experimental: as §13

[8] = system: C57B1/6 male mice; experiment: Forced swim test (FST); format: in vivo, mouse; details: 10 mg/kg i.p. 24, 20, 1 hour before testing; vs vehicle
Experimental: C57B1/6 male mice were ordered from Jackson Laboratories at 8 weeks-old and were group housed (4-5 mice/cage) under normal housing conditions (12 h light ON cycle starting at 7 am/water and food ad libitum) for one week. During this week, animals were handled in order to habituate them to the experimenter and to reduce their anxiety-like response during behavioral testing.
as §1, with “20” for “10”, “5 or” for “5,”, “10” for “10 or 20”, “FST” for “Y maze”, “were” for “were acutely”, “αPAM.” for “αPAM, 30 minutes before the beginning of the test.”
Mice were tested in the forced swim test (FST) (measure of despair-like behavior used for the assessment of antidepressant efficacy). Animals were sub-chronically injected three times (24, 20 and 1 hour before testing) as per standard methods in the field for testing potential antidepressant compounds.
One hour after the last injection, mice were placed in an inescapable transparent tank filled with water (25 cm, 25-26° C.), where they are unable to touch the bottom and unable to jump out of the tank. Animal were recorded for a period of 6 minutes and a manual count of the immobile time in the tank was measured for the 2-6 minutes period by an experimenter blinded to the mouse treatment history. Immobility is defined as the minimum amount of movement to stay afloat. Compounds that reduced immobility in the FST are considered to have potential antidepressant actions.

Row | SMILES | effect on CRS-induced working memory deficit (percent alternation rate, Y-maze) [1] | sensorimotor impairment on rotarod (time of fall) [2] | Half-life (min) (HumanLM) [3] | % left after 2 hr. (Human LM) [3] [%] | Half-life (min) (MouseLM) [4] | % left after 2 hr. (MouseLM) [4] [%] | molar concentration range reached in mouse brain tissue [5] | Alternation rate (%) [1] [%] | half-life at 10 μM [3] [min] | half-life at 10 μM [4] [min] | HEK293 LD50 [6] [µM] | HEPG2 LD50 [7] [µM] | time spent immobile in the FST [8]
1 | C#Cc1ccc2c(c1)C(c1ccccc1F)=N[C@@H](C)c1c(-c3nc(C)no3)ncn1-2 [GL-I-65, (S)-5-(8-ethynyl-6-(2-fluorophenyl)-4-methyl-4H-benzo[f]imidazo[1,5-a][1,4]diazepin-3-yl)-3-methyl-1,2,4-oxadiazole] | significant reversal of CRS-induced impairment in working memory; also recorded: increase in alternation rate | no sensorimotor impairment | 866 ± 213 | 86.4 ± 0.3 | 443 ± 67 | 81.0 ± 0.4 | moderate to high submicromolar concentrations | – | – | – | – | – | –
2 | C#Cc1ccc2c(c1)C(c1ccccn1)=N[C@H](C)c1c(C(=O)NC)ncn1-2 [GL-II-31, (R)-8-ethynyl-N,4-dimethyl-6-(pyridin-2-yl)-4H-benzo[f]imidazo[1,5-a][1,4]diazepine-3-carboxamide] | – | no sensorimotor impairment | – | – | – | – | moderate to high submicromolar concentrations | 56.6 | 1870 ± 765 | 1840 ± 590 | >400 | >400 | –
3 | C#Cc1ccc2c(c1)C(c1ccccn1)=N[C@H](C)c1c(-c3nc(C)no3)ncn1-2 [GL-II-33, (R)-5-(8-ethynyl-4-methyl-6-(pyridin-2-yl)-4H-benzo[f]imidazo[1,5-a][1,4]diazepin-3-yl)-3-methyl-1,2,4-oxadiazole] | a trend in the reversal of CRS-induced impairment in working memory; also recorded: a trend was detected | no sensorimotor impairment | – | – | – | 82.0 ± 0.3 | moderate to high submicromolar concentrations | – | 2590 ± 1110 | 500 ± 66 | >400 | >400 | –
4 | Cc1noc(-c2ncn3c2[C@@H](C)N=C(c2ccccn2)c2cc(Br)ccc2-3)n1 [GL-II-54, (R)-5-(8-bromo-4-methyl-6-(pyridin-2-yl)-4H-benzo[f]imidazo[1,5-a][1,4]diazepin-3-yl)-3-methyl-1,2,4-oxadiazole] | – | no sensorimotor impairment | – | 76.0 ± 0.2 | – | – | high submicromolar to low micromolar values | 66.66 | 404 ± 61 | 2330 ± 1110 | >400 | >400 | significant decrease in immobility time; also recorded: significant antidepressant-like action
5 | C#Cc1ccc2c(c1)C(c1ccccc1F)=NCc1c(-c3nc(C)no3)ncn1-2 [GL-III-23, 5-(8-ethynyl-6-(2-fluorophenyl)-4H-benzo[f]imidazo[1,5-a][1,4]diazepin-3-yl)-3-methyl-1,2,4-oxadiazole] | – | – | – | 82.0 ± 0.3 | – | – | micromolar concentrations | 56.6 | 504 ± 77 | 1320 ± 316 | >100 | >100 | –
